Data published in patent publication US9371294B2, “Cycloalkenyl aryl derivatives for CETP inhibitor” (CHONG KUN DANG PHARMACEUTICAL CORP., priority 2011, dated 2016).

Biological target: T1, cholesteryl ester transfer protein (Homo sapiens, UniProt P11597)
T1 construct: As a source of cholesteryl ester transfer protein, plasma from healthy humans was used; from tissue; host or cells: plasma from healthy humans
T1 sequence (P11597 18-493): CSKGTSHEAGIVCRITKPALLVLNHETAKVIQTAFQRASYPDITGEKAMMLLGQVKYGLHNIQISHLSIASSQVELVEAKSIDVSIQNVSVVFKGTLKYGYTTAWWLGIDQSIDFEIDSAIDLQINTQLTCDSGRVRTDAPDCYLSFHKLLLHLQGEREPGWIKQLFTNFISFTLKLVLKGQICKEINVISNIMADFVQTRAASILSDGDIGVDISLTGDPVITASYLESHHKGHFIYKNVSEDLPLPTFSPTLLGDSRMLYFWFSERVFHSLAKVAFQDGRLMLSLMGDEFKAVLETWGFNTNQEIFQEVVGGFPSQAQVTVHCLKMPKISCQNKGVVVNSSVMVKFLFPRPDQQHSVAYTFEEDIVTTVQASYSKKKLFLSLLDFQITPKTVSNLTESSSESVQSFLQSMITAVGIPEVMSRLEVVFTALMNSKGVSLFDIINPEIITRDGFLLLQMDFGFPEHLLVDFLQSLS
Assay: In vitro test for the ability to inhibit cholesteryl ester transfer
Format: biochemical
Details: [3H]-cholesteryl oleate transfer from rHDL-agarose to LDL; human plasma as CETP source; 37° C.; 16-10000 nM, duplicate
From the text: In Vitro Test for the Ability to Inhibit Cholesteryl Ester Transfer
1. Preparation of Cholesteryl Ester Donor
In order to prepare a cholesteryl ester donor to be used in the test, a radiolabeled recombinant HDL containing [^3H]-cholesteryl oleate (GE healthcare, TRK886, 3.5 μCi/mg of apoA-1) and apoA-1 was synthesized. Then, rHDL-agarose obtained by immobilizing the recombinant HDL with CNBr-activated Sepharose 4B resin (Amersham Biosciences, Sweden) was used in the test.
2. Cholesteryl Ester Transfer Test
As a source of cholesteryl ester transfer protein, plasma from healthy humans was used, and as cholesteryl ester receptor, LDL from healthy humans was used. Each of test compounds was added to be final concentrations of 16, 80, 400, 2000 and 10000 nM and tested in duplicate. In order to test cholesteryl ester transfer, 20 μl of plasma, 50 μl of LDL (0.25 mg/ml) and 50 μl of rHDL-agarose (0.25 mg/ml) were mixed with each other, and a solution of each test compound was added thereto and reacted thereto at 37° C. Then, the reaction solution was centrifuged at 4° C. for 3 minutes, thereby the reaction was stopped. 150 μl of the supernatant was transferred into a 96-well plate for radioactivity measurement, and the radioactivity thereof was measured with a beta-ray detector.
3. Statistical Processing
The ratio of [^3H]-cholesteryl oleate transferred from HDL to LDL was determined, and based on the determined ratio, the IC50 value of each compound was determined using GraphPad Prism 5.0.

| IC50 [nM] | Compound |
| --- | --- |
| 40 | COc1cc(F)c(OCC(F)(F)F)cc1C1=C(CN2C(=O)O[C@H](c3cc(C(F)(F)F)cc(C(F)(F)F)c3)[C@@H]2C)CC(C)(C)CC1 [Compound 222, (4S,5R)-5-(3,5-bis(trifluoromethyl)phenyl)-3-((2-(4-fluoro-2-methoxy-5-(2,2,2-trifluoroethoxy)phenyl)-5,5-dimethylcyclohex-1-enyl)methyl)-4-methyloxazolidin-2-one] |
| 100 | COc1cc2c(cc1C1=C(CN3C(=O)O[C@H](c4cc(C(F)(F)F)cc(C(F)(F)F)c4)[C@@H]3C)CC(C)(C)CC1)OCO2 [Compound 223, (4S,5R)-5-(3,5-bis(trifluoromethyl)phenyl)-3-((2-(6-methoxybenzo[d][1,3]dioxol-5-yl)-5,5-dimethylcyclohex-1-enyl)methyl)-4-methyloxazolidin-2-one] |
| 140 | COc1cc(C(F)(F)F)c(N(C)C(=O)C(F)(F)F)cc1C1=C(CN2C(=O)O[C@H](c3cc(C(F)(F)F)cc(C(F)(F)F)c3)[C@@H]2C)CC(C)(C)CC1 [Compound 227, N-(5-(2-(((4S,5R)-5-(3,5-bis(trifluoromethyl)phenyl)-4-methyl-2-oxooxazolidin-3-yl)methyl)-4,4-dimethylcyclohex-1-enyl)-4-methoxy-2-(trifluoromethyl)phenyl)-2,2,2-trifluoro-N-methylacetamide] |
| 700 | COc1cc(F)c(C(C)C)cc1C1=C(CN2C(=O)O[C@H](c3cc(C(F)(F)F)cc(C(F)(F)F)c3)[C@@H]2C)CN(C)CC1 [Compound 231, (4S,5R)-5-(3,5-bis(trifluoromethyl)phenyl)-3-((4-(4-fluoro-5-isopropyl-2-methoxyphenyl)-1-methyl-1,2,5,6-tetrahydropyridin-3-yl)methyl)-4-methyloxazolidin-2-one] |
| 20 | CCc1cc(OC)c(C2=C(CN3C(=O)O[C@H](c4cc(C(F)(F)F)cc(C(F)(F)F)c4)[C@@H]3C)CC(C)(C)CC2)cc1N(C)C(C)=O [Compound 234, N-(5-(2-(((4S,5R)-5-(3,5-bis(trifluoromethyl)phenyl)-4-methyl-2-oxooxazolidin-3-yl)methyl)-4,4-dimethylcyclohex-1-enyl)-2-ethyl-4-methoxyphenyl)-N-methylacetamide] |
| 9 | COc1cc(F)c(C2CC2)cc1C1=C(CN2C(=O)O[C@H](c3cc(C(F)(F)F)cc(C(F)(F)F)c3)[C@@H]2C)CC(C)(C)CC1 [Compound 237, (4S,5R)-5-(3,5-bis(trifluoromethyl)phenyl)-3-((2-(5-cyclopropyl-4-fluoro-2-methoxyphenyl)-5,5-dimethylcyclohex-1-enyl)methyl)-4-methyloxazolidin-2-one] |
| 390 | COc1cc(F)c(OC(C)C)cc1C1=C(CN2C(=O)O[C@H](c3cc(C(F)(F)F)cc(C(F)(F)F)c3)[C@@H]2C)CC(C)(C)CC1 [Compound 241, (4S,5R)-5-(3,5-bis(trifluoromethyl)phenyl)-3-((2-(4-fluoro-5-isopropoxy-2-methoxyphenyl)-5,5-dimethylcyclohex-1-enyl)methyl)-4-methyloxazolidin-2-one] |
| 9 | COc1ccc(N(C)C(=O)C(C)(C)OC(C)=O)cc1C1=C(CN2C(=O)O[C@H](c3cc(C(F)(F)F)cc(C(F)(F)F)c3)[C@@H]2C)CC(C)(C)CC1 [Compound 243, 1-((3-(2-(((4S,5R)-5-(3,5-bis(trifluoromethyl)phenyl)-4-methyl-2-oxooxazolidin-3-yl)methyl)-4,4-dimethylcyclohex-1-enyl)-4-methoxyphenyl)(methyl)amino)-2-methyl-1-oxopropan-2-yl acetate] |
| 20 | COc1ccc(N(C)C(=O)C(C)(C)O)cc1C1=C(CN2C(=O)O[C@H](c3cc(C(F)(F)F)cc(C(F)(F)F)c3)[C@@H]2C)CC(C)(C)CC1 [Compound 244, N-(3-(2-(((4S,5R)-5-(3,5-bis(trifluoromethyl)phenyl)-4-methyl-2-oxooxazolidin-3-yl)methyl)-4,4-dimethylcyclohex-1-enyl)-4-methoxyphenyl)-2-hydroxy-N,2-dimethylpropanamide] |
| 810 | COc1cc(F)c(C(C)C)cc1C1=C(CN2C(=O)O[C@H](c3cc(C(F)(F)F)cc(C(F)(F)F)c3)[C@@H]2C)CN(C(F)(F)F)CC1 [Compound 245, (4S,5R)-5-(3,5-bis(trifluoromethyl)phenyl)-3-((4-(4-fluoro-5-isopropyl-2-methoxyphenyl)-1-(trifluoromethyl)-1,2,5,6-tetrahydropyridin-3-yl)methyl)-4-methyloxazolidin-2-one] |
| 1 | COc1cc(C)c(N(C)C(C)=O)cc1C1=C(CN2C(=O)O[C@H](c3cc(C(F)(F)F)cc(C(F)(F)F)c3)[C@@H]2C)CC(C)(C)CC1 [Compound 249, N-(5-(2-(((4S,5R)-5-(3,5-bis(trifluoromethyl)phenyl)-4-methyl-2-oxooxazolidin-3-yl)methyl)-4,4-dimethylcyclohex-1-enyl)-4-methoxy-2-methylphenyl)-N-methylacetamide] |
| 690 | COc1cc(C)c(N(C)S(=O)(=O)C(F)(F)F)cc1C1=C(CN2C(=O)O[C@H](c3cc(C(F)(F)F)cc(C(F)(F)F)c3)[C@@H]2C)CC(C)(C)CC1 [Compound 251, N-(5-(2-(((4S,5R)-5-(3,5-bis(trifluoromethyl)phenyl)-4-methyl-2-oxooxazolidin-3-yl)methyl)-4,4-dimethylcyclohex-1-enyl)-4-methoxy-2-methylphenyl)trifluoro-N-methylmethanesulfonamide] |
| 164 | COc1cc(F)c(C(C)C)cc1C1=C(CN2C(=O)O[C@H](c3cc(C(F)(F)F)cc(C(F)(F)F)c3)[C@@H]2C)CN(C(C)C)CC1 [Compound 265, (4S,5R)-5-(3,5-bis(trifluoromethyl)phenyl)-3-((4-(4-fluoro-5-isopropyl-2-methoxyphenyl)-1-isopropyl-1,2,5,6-tetrahydropyridin-3-yl)methyl)-4-methyloxazolidin-2-one] |
| 46 | COc1cc(F)c(C(C)C)cc1C1=C(CN2C(=O)O[C@H](c3cc(C(F)(F)F)cc(C(F)(F)F)c3)[C@@H]2C)CN(CC(F)(F)F)CC1 [Compound 268, (4S,5R)-5-(3,5-bis(trifluoromethyl)phenyl)-3-((4-(4-fluoro-5-isopropyl-2-methoxyphenyl)-1-(2,2,2-trifluoroethyl)-1,2,5,6-tetrahydropyridin-3-yl)methyl)-4-methyloxazolidin-2-one] |
| 222 | COC(=O)CCc1ccc(OC)c(C2=C(CN3C(=O)O[C@H](c4cc(C(F)(F)F)cc(C(F)(F)F)c4)[C@@H]3C)CC(C)(C)CC2)c1 [Compound 272, methyl 3-(3-(2-(((4S,5R)-5-(3,5-bis(trifluoromethyl)phenyl)-4-methyl-2-oxooxazolidin-3-yl)methyl)-4,4-dimethylcyclohex-1-enyl)-4-methoxyphenyl)propanoate] |
| 217 | COc1ccc(CCC(=O)O)cc1C1=C(CN2C(=O)O[C@H](c3cc(C(F)(F)F)cc(C(F)(F)F)c3)[C@@H]2C)CC(C)(C)CC1 [Compound 273, 3-(3-(2-(((4S,5R)-5-(3,5-bis(trifluoromethyl)phenyl)-4-methyl-2-oxooxazolidin-3-yl)methyl)-4,4-dimethylcyclohex-1-enyl)-4-methoxyphenyl)propanoic acid] |
| 33 | COC(=O)C(C)(C)Cc1ccc(OC)c(C2=C(CN3C(=O)O[C@H](c4cc(C(F)(F)F)cc(C(F)(F)F)c4)[C@@H]3C)CC(C)(C)CC2)c1 [Compound 285, methyl 3-(3-(2-(((4S,5R)-5-(3,5-bis(trifluoromethyl)phenyl)-4-methyl-2-oxooxazolidin-3-yl)methyl)-4,4-dimethylcyclohex-1-enyl)-4-methoxyphenyl)-2,2-dimethylpropanoate] |
| 1 | COc1ccc(CCC#N)cc1C1=C(CN2C(=O)O[C@H](c3cc(C(F)(F)F)cc(C(F)(F)F)c3)[C@@H]2C)CC(C)(C)CC1 [Compound 300, 3-(3-(2-(((4S,5R)-5-(3,5-bis(trifluoromethyl)phenyl)-4-methyl-2-oxooxazolidin-3-yl)methyl)-4,4-dimethylcyclohex-1-enyl)-4-methoxyphenyl)propanenitrile] |
| 5 | COc1cc(F)c(C2(C)CC2)cc1C1=C(CN2C(=O)O[C@H](c3cc(C(F)(F)F)cc(C(F)(F)F)c3)[C@@H]2C)CC2(CC1)CC2 [Compound 303, (4S,5R)-5-(3,5-bis(trifluoromethyl)phenyl)-3-((6-(4-fluoro-2-methoxy-5-(1-methylcyclopropyl)phenyl)spiro[2.5]oct-5-en-5-yl)methyl)-4-methyloxazolidin-2-one] |
